Data: patent US9370182B2, “Antimicrobial peptide and use thereof” (TOAGOSEI CO., LTD., priority 2012, dated 2016)
Where no end group is shown, it is not given here.

Tests used:
Format in all cases: cell-based
E. coli (NIH-JC2) = details: for Antimicrobial activities (MIC in μM) E. coli: NIH-JC2, 24 h
Method: (§1) The two bacterial strains (S. aureus, E. coli) were subcultured from storage media to agar plate media (“Mueller Hinton Agar” available from DIFCO), then inoculated into liquid media (“Mueller Hinton broth II” available from DIFCO) and cultured at 30° C. or 37° C. for 24 hours. Subsequently, the aforementioned medium was added to the culture media to dilute and prepare inocula at bacterial concentrations of 2×10^5 cells/mL.
(§2) Antimicrobial activity tests were conducted as follows.
(§3) The peptide-containing solutions prepared to the respective concentrations were aliquoted into 96-well microplates at 20 μL per well. In test sections against the fungus, 80 μL of the MOPS-buffered RPMI1640 medium was added to each well. In test sections against the bacteria, 80 μL of the liquid medium (Mueller Hinton broth II) was added to each well.
(§4) Subsequently, 100 μL of one of the inocula was added to each well and incubation was started in an incubator at 30° C. or 37° C. After 24 hours, the multiplication (growth) of the microorganisms was analyzed by measurements of turbidity (OD600).

S. aureus (209P) = details: for Antimicrobial activities (MIC in μM) S. aureus: 209P, 24 h
Method: as §1, §2, §3, §4

C. albicans (NBRC-1594) = details: for Antimicrobial activities (MIC in μM) C. albicans: NBRC-1594, 24 h
Method: On the other hand, with respect to the one fungus strain (C. albicans), the surface of a slant culture was washed with a physiological saline containing 0.1% Tween® 80 to prepare a conidial suspension. The suspension was filtered with a Falcon® cell strainer and diluted with a MOPS-buffered RPMI1640 medium to prepare an inoculum at a fungus concentration of 2×10^4 cells/mL.
as §2, §3, §4

[1] = summary of Table 2, all microorganism strains

Sequence | Antimicrobial activities (MIC in μM) E. coli (E. coli (NIH-JC2)) [µM] | Antimicrobial activities (MIC in μM) S. aureus (S. aureus (209P)) [µM] | Antimicrobial activities (MIC in μM) C. albicans (C. albicans (NBRC-1594)) [µM] | Antimicrobial activity in words, E. coli (E. coli (NIH-JC2); [1]) | Antimicrobial activity in words, S. aureus (S. aureus (209P); [1]) | Antimicrobial activity in words, C. albicans (C. albicans (NBRC-1594); [1])
MAATGTAAAAATGKLLVLLLLGLTAPAAA [Sample 6] | 16 | 8 | 16 | – | – | –
TLHQQCIRVLKNNID [Sample 7, reference compound] | >256 | >256 | >256 | no antimicrobial activities were observed | no antimicrobial activities were observed | no antimicrobial activities were observed
MGPASPAARGLSRRPGQPPLPLLLPLLLLLLRAQPAIG [Sample 3] | 16 | 4 | 16 | – | – | –
MLPSLALLLLAAWTVRA [Sample 2] | 32 | 16 | 32 | – | – | –
MGPTSPAARGQGRRWRPPLPLLLPLSLLLLRAQLAVG [Sample 4] | 16 | 4 | 16 | – | – | –
MAATGTAAAAATGRLLLLLLVGLTAPALA [Sample 5] | 16 | 8 | 16 | – | – | –
MLPGLALLLLAAWTARA [Sample 1] | 32 | 16 | 32 | – | – | –
